Read-outs that look alike come from different tables or passages of the source.
Experiments:
[1] = tested on: T47D cells; assay: Cell Proliferation Assay (GI50), sulforhodamine B (SRB) assay; type: cell-based; details: Homo sapiens, 120 hours, SRB
Procedure: Cell growth was assessed using the sulforhodamine B (SRB) assay (A). T47D (ECACC, 85102201) cells were routinely passaged in RPMI (Invitrogen, 42401018) plus 10% foetal calf serum (FCS), 1% L-glutamine (Gibco BRL, 25030) to a confluence not greater than 80%. To undertake the assay, T47D cells were seeded at 2.5×10^3 cells/well in […] RPMI plus 10% foetal calf serum, 1% L-glutamine in 96 well plates (Costar, 3904) and incubated at 37° C. (+5% CO2) in a humidified incubator. Once the cells had fully adhered (typically following 4-5 hours incubation) the plate was removed from the incubator and 10 μL of the diluent added to the control wells (A1-12 and B1-12). Compound was prepared in a six point semi-log dilution at 10× the final concentration required e.g. for a 6 point range of 30 μM to 100 nM in semi-log steps dilution started at 300 μM in stock plate. Dosing was completed by addition of 10 μL of compound at highest concentration to C1-12 through to the lowest concentration in H1-12. The plates were then incubated for 120 hours prior to SRB analysis.
Upon completion of incubation, media was removed and the cells fixed with […] of ice cold 10% (w/v) trichloroacetic acid. The plates were incubated at 4° C. for 20 minutes and then washed four times with water. Each well of cells was then stained with 100 μl of 0.4% (w/v) SRB (Sulforhodamine B, Sigma, Poole, Dorset, UK, Catalogue number S-9012) in 1% acetic acid for 20 minutes before washing four times with 1% acetic acid. Plates were then dried for 2 hours at room temperature. The dye from the stained cells was solubilized by the addition of 100 μl of 10 mM Tris Base into each well. Plates were gently shaken and left at room temperature for 30 minutes before measuring the optical density at 564 nm on a Microquant microtiter plate reader. The concentration of inhibitor eliciting a 50% reduction in growth (GI50) was determined by analysis of staining intensity of the treated cells as a percentage of the vehicle control wells using Excelfit software.
(A) Skehan, P., Storung, R., Scudiero, R., Monks, A., McMahon, J., Vistica, D., Warren, J. T., Bokesch, H., Kenny, S. and Boyd, M. R. (1990) New […] cytotoxicity assay for anticancer-drug screening. J. Natl. Cancer Inst. 82, 1107-1112.

[2] = target: recombinant mTOR (FLAG-tagged, amino acid residues 1362 to 2549) (Homo sapiens, UniProt P42345); assay: Alternative Enzyme Assay: AlphaScreen, inhibition of phosphorylation by recombinant mTOR; type: biochemical; details: Alternative Enzyme Assay, single values; read-out: IC50
[3] = target: T1, mTOR (Homo sapiens, UniProt P42345); assay: Biological Assay: mTOR enzyme activity, mTOR immunoprecipitated from HeLa cell cytoplasmic extract, recombinant PHAS-1 as substrate; type: biochemical; details: Biological Assay
T1 construct: mTOR protein was isolated from HeLa cell cytoplasmic extract by immunoprecipitation; endogenous in cells; host or cells: HeLa cell cytoplasmic extract (immunoprecipitate)

[4] = tested on: phosphorylation of Serine 473 in Akt in MDA-MB-468 cells; assay: In Vitro phospho-Ser473 Akt Assay (Acumen Explorer); type: cell-based; details: Homo sapiens
[5] = upper bounds, read-out: IC50 values against mTOR

Structure (SMILES) | GI50 ([1]; upper bounds) | IC50 [3, 5] | further results
C[C@@H]1CN(c2nc(N3CCOCC3)c3ccc(-c4ccsc4)nc3n2)C[C@H](C)O1 [Comparative Example 1k, reference compound] | – | – | GI50 ([1]; single values): 268 nM; IC50 [2]: 225 nM; IC50 ([3]; single values, read-out: IC50): 33 nM; IC50 ([4]; MDA-MB-468 cells, single values, read-out: IC50 (phospho-Ser473 Akt assay)): 412 nM
COc1ccc(-c2ccc3c(N4CCOCC4)nc(N4C[C@@H](C)O[C@@H](C)C4)nc3n2)cc1CNC(Cc1ccc(O)cc1)C(=O)O (stereo partly drawn) [Example 8ar] | < 300 nM | < 100 nM | –
COc1ccc(-c2ccc3c(N4CCOCC4)nc(N4C[C@@H](C)O[C@@H](C)C4)nc3n2)cc1CNCCSCCO [Example 8ad] | < 300 nM | < 100 nM | –
COc1ccc(-c2ccc3c(N4CCOCC4)nc(N4C[C@@H](C)O[C@@H](C)C4)nc3n2)cc1CNCc1cccc(CN)c1 [Example 8ap] | < 300 nM | < 100 nM | –
COc1ccc(-c2ccc3c(N4CCOCC4)nc(N4C[C@@H](C)O[C@@H](C)C4)nc3n2)cc1CNc1cc[nH]n1 [Example 8al] | < 300 nM | < 100 nM | –
C[C@@H]1CN(c2nc(N3CCOC[C@@H]3C)c3ccc(-c4ccsc4)nc3n2)C[C@H](C)O1 [Example 11k] | – | – | GI50 ([1]; single values): 32 nM; IC50 ([4]; MDA-MB-468, read-out: IC50 (phospho-Ser473 Akt assay)): 83 nM
COc1ccc(-c2ccc3c(N4CCOCC4)nc(N4C[C@@H](C)O[C@@H](C)C4)nc3n2)cc1CNC1CCCC(C)C1C (stereo partly drawn) [Example 8ag] | < 300 nM | < 100 nM | –
COc1ccc(-c2ccc3c(N4CCOCC4)nc(N4C[C@@H](C)O[C@@H](C)C4)nc3n2)cc1CNCC1CCCO1 (stereo partly drawn) [Example 8aj] | < 300 nM | < 100 nM | –
COc1ccc(-c2ccc3c(N4CCOCC4)nc(N4C[C@@H](C)O[C@@H](C)C4)nc3n2)cc1CNCC1CCCCC1O (stereo partly drawn) [Example 8aa] | – | < 100 nM | GI50 [1]: < 1000 nM

More lines, main results first:

GI50 ([1]; upper bounds) | IC50 [3, 5] | Structure (SMILES) | further results
< 300 nM | < 1000 nM | COc1ccc(-c2ccc3c(N4CCOCC4)nc(N4C[C@@H](C)O[C@@H](C)C4)nc3n2)cc1CNCC(C)C [Example 8u] | –
< 300 nM | < 100 nM | COc1ccc(-c2ccc3c(N4CCOCC4)nc(N4C[C@@H](C)O[C@@H](C)C4)nc3n2)cc1CNCC(O)c1cccc(O)c1 (stereo partly drawn) [Example 8bb] | –
– | < 1000 nM | C#CC1(NCc2cc(-c3ccc4c(N5CCOCC5)nc(N5C[C@@H](C)O[C@@H](C)C5)nc4n3)ccc2OC)CCCCC1 [Example 8x] | GI50 [1]: < 1000 nM
< 300 nM | < 100 nM | COc1ccc(-c2ccc3c(N4CCOCC4)nc(N4C[C@@H](C)O[C@@H](C)C4)nc3n2)cc1CNCC1CC1 [Example 8g] | –
< 300 nM | < 100 nM | CCCCNCc1cc(-c2ccc3c(N4CCOCC4)nc(N4C[C@@H](C)O[C@@H](C)C4)nc3n2)ccc1OC [Example 8l] | –

— patent publication US20080194546A1, “Pyrido-, Pyrazo- and Pyrimido-Pyrimidine Derivatives as mTOR Inhibitors” (KuDOS Pharmaceuticals Limited, priority 2005, published 2008)
